Assay results: the NIST ThermoML archive (doi:10.1016/j.fluid.2014.10.037)
Values joined by “and” are separate entries in the source; they are usually repeats but may differ in a detail not shown here. Identical values can stand only once.

Settings: Liquid, Closed cell (Static) method

O=Cc1ccco1 [2-furaldehyde]
Settings | vapor or sublimation pressure [kPa]
353.2 K | 5.9
373.4 K | 13.6
408 K | 46.3

OCc1ccco1 [2-hydroxymethylfuran]
Settings | vapor or sublimation pressure [kPa]
353.3 K | 2.6
373 K | 7
407.9 K | 30.1

Cc1ccco1 [2-methylfuran]
Settings | vapor or sublimation pressure
353.8 K | 161.8 kPa and 162.6 kPa
357.5 K | 181.5 kPa and 181.7 kPa
358.3 K | 186.5 kPa
362.4 K | 210.5 kPa
362.5 K | 211.1 kPa
363.1 K | 214.9 kPa
367.2 K | 242.1 kPa
367.4 K | 242.7 kPa
367.9 K | 246 kPa
373.4 K | 285.3 kPa
373.6 K | 286.4 kPa
373.9 K | 288.4 kPa
398.2 K | 527.6 kPa
398.4 K | 530.3 kPa
398.8 K | 533.8 kPa
403 K | 587.6 kPa
403.2 K | 591.7 kPa
403.3 K | 592.3 kPa
408.4 K | 667.2 kPa
408.6 K | 670.2 kPa
409 K | 676.7 kPa

c1ccoc1 [furan]
Settings | vapor or sublimation pressure [kPa]
353.4 K | 455.1
373.1 K | 735.6
407.9 K | 1513.3

CC(C)O [propan-2-ol]
Settings | vapor or sublimation pressure [kPa]
353.3 K | 93.8
373.5 K | 200.1
408.3 K | 593.8
